How the values were obtained:
Nur77 = target: T1, Nur77 (Homo sapiens, UniProt P22736); experiment: Nur77 reporter (NurRE) luciferase assay in Nur77-expressing SMCs; format: cell-based
T1 construct: expressed in transfected cells; host or cells: cultured human smooth muscle cells (SMCs), lentivirally transduced
Method: Cells were electroporated using the Amaxa method(Amaxa, Germany) with nucleofector reagent for SMCs. In each transfection, 0.5−1.0×10^6 cells were used and 3.5 μg Nur77-reporter plasmid with 1.5 μg Renilla luciferase plasmid (containing the thymidine kinase promoter) to correct for cell number and transfection efficiency. The NUR77-reporter plasmid contained the Nur response element (NurRE) of the POMC-promoter in triplicate with the −34/+63 minimal promoter of POMC gene.^19 24 hours after transfection, cells were incubated with 6-MP (Sigma) for 24 hours and luciferase activity was assayed with the Dual luciferase reporter system (Promega, Madison, Wis.).
To investigate whether 6-MP increases Nur77 transcriptional activity in vascular cells, human SMCs were transduced with lentivirus encoding Nur77, resulting in expression in 85-90% of the infected cells and increased Nur77 mRNA levels compared to mock-infected SMCs (data not shown). […] Nur77-overexpressing SMCs were subsequently electroporated with the firefly luciferase reporter construct, containing the palindromic NurRE (Nur77 response element from the POMC-promoter) sequence (TGATATTTn6AAATGCCA) to monitor Nur77 transcriptional activity in combination with the thymidine kinase-renilla luciferase construct as a control for transfection efficiency.

human SMCs = experiment: DNA synthesis assay ([3H]thymidine incorporation) in FBS-stimulated cultured SMCs; format: cell-based
Method: Human SMCs were explanted from umbilical cord arteries. Cells were cultured in DMEM (Invitrogen Life Technology, Breda, The Netherlands) with 10% (v/v) fetal bovine serum (FBS) with penicillin and streptomycin (Invitrogen). Cells were used at passages five to seven. […] To determine cellular viability, cells were washed with PBS and subsequently incubated in medium in the presence of 0.5-mg/ml 3-(4,5-dimethylthiazol-2-yl)-2,5-diphenyltetrazolium bromide (MTT; Sigma Diagnostics, St. Louis). After two hours, medium was discarded, formazan crystals were dissolved in isopropanol and optical density was measured at 590 nm. Apoptosis was induced by incubating cells for 24 hours in medium with 0.25 μM staurosporine (Sigma). Subsequently, SMCs were fixed, stained with Hoechst dye and the relative number of apoptotic nuclei was determined.
SMCs were seeded in 24-well plates at 1−4×10^4 cells per well and reached 60% to 70% confluency after 24 hours. SMCs were made quiescent by incubation for 24 hours in FBS-free medium. 6-MP was dissolved in dimethylsulfoxide and applied one hour before FBS stimulation. SMCs were stimulated for 24 hours with 10% (v/v) FBS and subsequently cells were labeled for 18 hours with 0.25 μCi/well [methyl-3H]thymidine (Amersham Biosciences, Buckinghamshire, UK). Incorporated radioactivity was precipitated for 30 min at 4° C. with 10% (w/v) trichloroacetic acid, washed twice with 5% (w/v) trichloroacetic acid, and dissolved in 0.5 N NaOH (0.5 mL per well). Incorporated [^3H]thymidine was measured by liquid-scintillation counting.
(§1) The following small interfering (si)RNA sequences were used: Nur77 siRNA, 5′-CAG UCC AGC CAU GCU CCU C dTdT-3′, as described previously^20, and control siRNA, 5′-CAG ACG AGC CUU GCU CGU C dTdT-3′ (Ambion Inc., Austin, Tex.). Five μg of siRNA was transfected into 0.5−1×10^6 SMCs, using Nucleofector reagent for SMCs (Amaxa) as per the manufacturer's recommendations. Total mRNA was isolated five days after transfection, using the absolutely mRNA miniprep kit (Stratagene, La Jolla, Calif.). Subsequent cDNA synthesis was performed using the iScript cDNA synthesis kit (Biorad, Hercules, Calif.). Real-time polymerase chain reaction (PCR) was performed using SYBR green mix (Biorad) in the MyIQ System (Biorad). Primers for Nur77 were as follows: (forward) 5′-[…]-3′ and (reverse) 5′-[…]-3′. As a control for equal amount of first strand cDNA in different samples we corrected for Ribosomal Phosphoprotein (P0) mRNA levels, which were determined with the following primers (forward) 5′-[…]-3′ and (reverse) 5′-[…]-3′.
as §1, with “iscript” for “iScript”

T1 sequence (P22736 whole entry): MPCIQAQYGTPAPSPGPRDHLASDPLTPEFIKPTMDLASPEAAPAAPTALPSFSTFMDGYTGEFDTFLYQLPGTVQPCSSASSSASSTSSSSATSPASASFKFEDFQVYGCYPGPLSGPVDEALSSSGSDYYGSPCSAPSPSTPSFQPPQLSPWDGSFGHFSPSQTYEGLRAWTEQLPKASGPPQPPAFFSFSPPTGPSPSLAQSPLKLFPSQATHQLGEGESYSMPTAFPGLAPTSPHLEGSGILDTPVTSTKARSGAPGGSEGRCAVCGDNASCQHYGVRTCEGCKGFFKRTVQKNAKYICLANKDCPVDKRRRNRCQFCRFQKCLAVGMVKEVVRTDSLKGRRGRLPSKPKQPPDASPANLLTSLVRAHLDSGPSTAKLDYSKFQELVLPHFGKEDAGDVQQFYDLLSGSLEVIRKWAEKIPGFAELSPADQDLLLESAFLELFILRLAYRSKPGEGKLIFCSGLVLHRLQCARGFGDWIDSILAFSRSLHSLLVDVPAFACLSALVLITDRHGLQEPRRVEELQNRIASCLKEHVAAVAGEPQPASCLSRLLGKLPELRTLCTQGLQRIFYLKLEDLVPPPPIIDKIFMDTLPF

Sc1ncnc2nc[nH]c12 [6-MP, 6-mercaptopurine]
increase in Nur77 activity (luciferase) (Nur77; 50 μM, 24 hours): 10 fold
Nur77 transcriptional activity (Nur77; 24 hours in the presence of 6-MP): enhances Nur77 activity
DNA synthesis in SMCs (human SMCs; 25 μM or 50 μM): reduced
inhibition of DNA synthesis (human SMCs; SMCs transfected with Nur77 (TR3)-specific siRNA): 41%
inhibition of DNA synthesis (human SMCs; SMCs transfected with control siRNA): 61%
DNA synthesis in SMCs (human SMCs; increasing concentrations, 10% FBS): inhibits DNA synthesis

Reference: US20090035345A1, “Nuclear Receptors Agonists for Treatment of Atherosclerosis and/or Related Cardiovascular Disease” (ACADEMISCH MEDISCH CENTRUM, BUREAU, priority 2005, published 2009)
